Paper PMC4823954, “From fighting depression to conquering tumors: a novel tricyclic thiazepine compound as a tubulin polymerization inhibitor” (Cell Death & Disease, 2016)

What was measured:
Experiment in all cases: KINOMEscan
Type in all cases: binding
Conditions in all cases: read-out: % Ctrl
[1] = biological target: T1, TLK2 (Homo sapiens, UniProt Q86UE8)
T1 construct: purchased DiscoveRx KINOMEscan
How it was run: (§1)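 Competition binding panel of 442 non-mutant kinases: test compound at 5 and 10 μM competed with an active-site-directed ligand for 1 h with shaking. Bound kinase was eluted with 0.5 μM ligand and quantified by qPCR; %Ctrl = (compound − positive control)/(DMSO − positive control) × 100, lower meaning tighter binding.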

[2] = biological target: T2, PKN1 (Homo sapiens, UniProt Q16512)
T2 construct: purchased DiscoveRx KINOMEscan
How it was run: as §1

[3] = biological target: T3, MEK2 (Homo sapiens, UniProt P36507)
T3 construct: purchased DiscoveRx KINOMEscan
How it was run: as §1

[4] = biological target: T4, DAPK1 (Homo sapiens, UniProt P53355)
T4 construct: purchased DiscoveRx KINOMEscan
How it was run: as §1

[5] = biological target: T5, FES (Homo sapiens, UniProt P07332)
T5 construct: purchased DiscoveRx KINOMEscan
How it was run: as §1

[6] = biological target: T6, MST3 (Homo sapiens, UniProt Q9Y6E0)
T6 construct: purchased DiscoveRx KINOMEscan
T6 sequence (Q9Y6E0 whole entry): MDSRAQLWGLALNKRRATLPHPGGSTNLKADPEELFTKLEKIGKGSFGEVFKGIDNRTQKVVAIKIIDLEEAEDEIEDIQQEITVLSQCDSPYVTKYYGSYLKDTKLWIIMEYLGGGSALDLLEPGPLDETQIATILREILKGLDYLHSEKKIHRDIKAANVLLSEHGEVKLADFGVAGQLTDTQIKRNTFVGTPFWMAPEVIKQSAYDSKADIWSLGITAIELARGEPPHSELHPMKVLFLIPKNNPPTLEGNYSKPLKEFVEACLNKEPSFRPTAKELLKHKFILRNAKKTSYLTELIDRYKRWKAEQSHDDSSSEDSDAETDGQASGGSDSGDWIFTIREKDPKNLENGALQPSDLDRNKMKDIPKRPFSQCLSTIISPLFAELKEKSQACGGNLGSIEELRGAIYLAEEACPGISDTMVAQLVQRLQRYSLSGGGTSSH
How it was run: as §1

[7] = biological target: T7, CLK1 (Homo sapiens, UniProt P49759)
T7 construct: purchased DiscoveRx KINOMEscan
How it was run: as §1

[8] = biological target: T8, SIK (Homo sapiens, UniProt P57059)
T8 construct: purchased DiscoveRx KINOMEscan
T8 sequence (P57059 whole entry): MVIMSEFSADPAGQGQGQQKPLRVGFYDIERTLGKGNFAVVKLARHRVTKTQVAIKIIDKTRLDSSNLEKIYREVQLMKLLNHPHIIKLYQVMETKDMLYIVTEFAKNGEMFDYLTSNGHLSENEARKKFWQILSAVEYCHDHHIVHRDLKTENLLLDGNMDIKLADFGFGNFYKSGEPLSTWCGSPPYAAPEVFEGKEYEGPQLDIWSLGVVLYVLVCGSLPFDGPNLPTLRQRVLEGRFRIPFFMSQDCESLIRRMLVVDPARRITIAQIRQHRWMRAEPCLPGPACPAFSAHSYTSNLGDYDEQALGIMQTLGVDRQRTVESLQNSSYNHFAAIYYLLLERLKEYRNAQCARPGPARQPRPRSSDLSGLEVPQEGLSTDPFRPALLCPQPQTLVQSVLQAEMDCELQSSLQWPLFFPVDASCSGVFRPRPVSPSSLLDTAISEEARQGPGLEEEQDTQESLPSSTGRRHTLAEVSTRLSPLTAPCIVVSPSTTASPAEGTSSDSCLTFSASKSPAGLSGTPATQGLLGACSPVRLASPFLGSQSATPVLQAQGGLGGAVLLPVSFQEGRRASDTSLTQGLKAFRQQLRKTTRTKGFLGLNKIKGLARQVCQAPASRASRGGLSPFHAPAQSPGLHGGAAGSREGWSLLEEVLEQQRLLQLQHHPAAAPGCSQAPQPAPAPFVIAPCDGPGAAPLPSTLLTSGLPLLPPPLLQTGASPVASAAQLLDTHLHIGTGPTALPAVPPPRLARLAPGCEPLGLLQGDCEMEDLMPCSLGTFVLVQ
How it was run: as §1

[9] = biological target: T9, AMPK-alpha2 (Homo sapiens, UniProt P54646)
T9 construct: purchased DiscoveRx KINOMEscan
How it was run: as §1

[10] = biological target: T10, RIPK4 (Homo sapiens, UniProt P57078)
T10 construct: purchased DiscoveRx KINOMEscan
How it was run: as §1

[11] = biological target: T11, MKNK1 (Homo sapiens, UniProt Q9BUB5)
T11 construct: purchased DiscoveRx KINOMEscan
T11 sequence (Q9BUB5 whole entry): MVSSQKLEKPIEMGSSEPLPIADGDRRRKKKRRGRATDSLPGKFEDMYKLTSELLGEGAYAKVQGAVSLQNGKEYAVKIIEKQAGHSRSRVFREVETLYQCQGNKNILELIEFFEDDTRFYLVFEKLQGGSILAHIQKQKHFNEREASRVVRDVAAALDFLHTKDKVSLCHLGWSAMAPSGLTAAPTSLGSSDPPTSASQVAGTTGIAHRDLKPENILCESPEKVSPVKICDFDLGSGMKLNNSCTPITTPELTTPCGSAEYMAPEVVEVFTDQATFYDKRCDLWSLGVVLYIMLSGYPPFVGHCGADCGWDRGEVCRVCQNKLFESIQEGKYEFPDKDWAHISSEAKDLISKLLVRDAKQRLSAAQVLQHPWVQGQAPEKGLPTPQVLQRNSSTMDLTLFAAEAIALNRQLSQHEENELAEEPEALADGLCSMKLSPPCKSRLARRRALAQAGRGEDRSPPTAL
How it was run: as §1

[12] = biological target: T12, CDKL1 (Homo sapiens, UniProt Q00532)
T12 construct: purchased DiscoveRx KINOMEscan
How it was run: as §1

[13] = biological target: T13, ACVR2A (Homo sapiens, UniProt P27037)
T13 construct: purchased DiscoveRx KINOMEscan
How it was run: as §1

[14] = biological target: T14, ABL1(T315I)-phosphorylated (Homo sapiens, UniProt P00519, T315I)
T14 construct: purchased DiscoveRx KINOMEscan

[15] = biological target: T15, CLK2 (Homo sapiens, UniProt P49760)
T15 construct: purchased DiscoveRx KINOMEscan
How it was run: as §1

[16] = biological target: T16, SRPK1 (Homo sapiens, UniProt Q96SB4)
T16 construct: purchased DiscoveRx KINOMEscan
How it was run: as §1

[17] = biological target: T17, SBK1 (Homo sapiens, UniProt Q52WX2)
T17 construct: purchased DiscoveRx KINOMEscan
How it was run: as §1

[18] = biological target: T18, JNK1 (Homo sapiens, UniProt P45983)
T18 construct: purchased DiscoveRx KINOMEscan
T18 sequence (P45983 whole entry): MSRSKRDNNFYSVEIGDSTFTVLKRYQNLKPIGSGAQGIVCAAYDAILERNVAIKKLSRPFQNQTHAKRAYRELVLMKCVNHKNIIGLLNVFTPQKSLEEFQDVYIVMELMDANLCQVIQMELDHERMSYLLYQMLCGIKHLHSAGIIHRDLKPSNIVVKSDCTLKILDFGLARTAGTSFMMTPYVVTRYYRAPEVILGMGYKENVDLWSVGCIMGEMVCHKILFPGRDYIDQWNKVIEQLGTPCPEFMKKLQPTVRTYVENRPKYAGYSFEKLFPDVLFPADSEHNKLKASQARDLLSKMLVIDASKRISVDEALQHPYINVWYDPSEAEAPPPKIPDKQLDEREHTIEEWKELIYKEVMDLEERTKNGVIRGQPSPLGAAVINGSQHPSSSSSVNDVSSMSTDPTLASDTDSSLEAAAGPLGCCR
How it was run: as §1

[19] = biological target: T19, PIK3CA(M1043I) (Homo sapiens, UniProt P42336, M1043I)
T19 construct: purchased DiscoveRx KINOMEscan

[20] = biological target: T20, BRK (Homo sapiens, UniProt Q13882)
T20 construct: purchased DiscoveRx KINOMEscan
T20 sequence (Q13882 whole entry): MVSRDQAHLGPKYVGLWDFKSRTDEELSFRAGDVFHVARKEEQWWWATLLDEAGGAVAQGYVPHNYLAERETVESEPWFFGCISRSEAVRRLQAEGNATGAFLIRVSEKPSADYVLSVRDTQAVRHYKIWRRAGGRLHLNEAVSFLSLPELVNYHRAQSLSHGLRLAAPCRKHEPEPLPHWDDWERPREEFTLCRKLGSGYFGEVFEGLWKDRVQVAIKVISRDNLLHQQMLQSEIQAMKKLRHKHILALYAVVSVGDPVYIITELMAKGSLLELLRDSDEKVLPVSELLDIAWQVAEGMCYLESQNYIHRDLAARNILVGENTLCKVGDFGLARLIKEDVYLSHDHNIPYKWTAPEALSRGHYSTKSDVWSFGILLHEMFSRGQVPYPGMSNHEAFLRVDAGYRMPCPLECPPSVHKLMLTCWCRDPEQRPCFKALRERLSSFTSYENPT
How it was run: as §1

[21] = biological target: T21, YSK4 (Homo sapiens, UniProt Q56UN5)
T21 construct: purchased DiscoveRx KINOMEscan
How it was run: as §1

[22] = biological target: T22, RSK1(Kin.Dom.2-C-terminal) (Homo sapiens, UniProt Q15418)
T22 construct: RSK1(Kin.Dom.2-C-terminal); purchased DiscoveRx KINOMEscan
How it was run: as §1

[23] = biological target: T23, FLT1 (Homo sapiens, UniProt P17948)
T23 construct: purchased DiscoveRx KINOMEscan
How it was run: as §1

[24] = biological target: T24, EGFR (Homo sapiens, UniProt P00533)
T24 construct: purchased DiscoveRx KINOMEscan
How it was run: as §1

[25] = biological target: T25, BMPR2 (Homo sapiens, UniProt Q13873)
T25 construct: purchased DiscoveRx KINOMEscan
T25 sequence (Q13873 27-1038): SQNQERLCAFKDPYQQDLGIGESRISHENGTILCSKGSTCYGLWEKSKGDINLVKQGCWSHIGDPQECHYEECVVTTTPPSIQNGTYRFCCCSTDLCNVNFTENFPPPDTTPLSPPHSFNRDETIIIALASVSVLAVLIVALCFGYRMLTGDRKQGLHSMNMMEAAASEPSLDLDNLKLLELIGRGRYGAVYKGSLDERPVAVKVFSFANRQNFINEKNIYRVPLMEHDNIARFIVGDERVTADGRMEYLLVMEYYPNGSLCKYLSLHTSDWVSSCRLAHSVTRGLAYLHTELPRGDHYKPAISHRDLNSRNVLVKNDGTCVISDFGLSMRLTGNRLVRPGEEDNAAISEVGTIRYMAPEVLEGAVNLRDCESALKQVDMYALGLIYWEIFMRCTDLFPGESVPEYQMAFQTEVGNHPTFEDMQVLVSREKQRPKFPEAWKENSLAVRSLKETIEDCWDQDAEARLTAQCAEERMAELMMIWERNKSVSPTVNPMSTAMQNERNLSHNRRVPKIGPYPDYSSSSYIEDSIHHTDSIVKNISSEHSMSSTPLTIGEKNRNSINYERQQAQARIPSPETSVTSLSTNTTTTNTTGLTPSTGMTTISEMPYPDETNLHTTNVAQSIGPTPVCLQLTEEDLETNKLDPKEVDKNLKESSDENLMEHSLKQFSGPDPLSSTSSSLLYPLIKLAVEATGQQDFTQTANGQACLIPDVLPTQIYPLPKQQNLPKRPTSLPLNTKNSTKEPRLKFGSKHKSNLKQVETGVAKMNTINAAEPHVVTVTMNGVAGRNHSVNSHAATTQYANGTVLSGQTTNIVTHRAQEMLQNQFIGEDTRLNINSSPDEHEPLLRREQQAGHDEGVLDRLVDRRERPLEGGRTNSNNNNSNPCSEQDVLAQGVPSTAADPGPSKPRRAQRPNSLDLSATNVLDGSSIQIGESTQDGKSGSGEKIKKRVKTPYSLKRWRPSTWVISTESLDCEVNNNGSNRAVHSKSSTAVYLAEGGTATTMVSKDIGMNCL
How it was run: as §1

[26] = biological target: T26, MAPKAPK5 (Homo sapiens, UniProt Q8IW41)
T26 construct: purchased DiscoveRx KINOMEscan
How it was run: as §1

[27] = biological target: T27, MYO3A (Homo sapiens, UniProt Q8NEV4)
T27 construct: purchased DiscoveRx KINOMEscan
How it was run: as §1

[28] = biological target: T28, INSR (Homo sapiens, UniProt P06213)
T28 construct: purchased DiscoveRx KINOMEscan
T28 sequence (P06213 28-1382): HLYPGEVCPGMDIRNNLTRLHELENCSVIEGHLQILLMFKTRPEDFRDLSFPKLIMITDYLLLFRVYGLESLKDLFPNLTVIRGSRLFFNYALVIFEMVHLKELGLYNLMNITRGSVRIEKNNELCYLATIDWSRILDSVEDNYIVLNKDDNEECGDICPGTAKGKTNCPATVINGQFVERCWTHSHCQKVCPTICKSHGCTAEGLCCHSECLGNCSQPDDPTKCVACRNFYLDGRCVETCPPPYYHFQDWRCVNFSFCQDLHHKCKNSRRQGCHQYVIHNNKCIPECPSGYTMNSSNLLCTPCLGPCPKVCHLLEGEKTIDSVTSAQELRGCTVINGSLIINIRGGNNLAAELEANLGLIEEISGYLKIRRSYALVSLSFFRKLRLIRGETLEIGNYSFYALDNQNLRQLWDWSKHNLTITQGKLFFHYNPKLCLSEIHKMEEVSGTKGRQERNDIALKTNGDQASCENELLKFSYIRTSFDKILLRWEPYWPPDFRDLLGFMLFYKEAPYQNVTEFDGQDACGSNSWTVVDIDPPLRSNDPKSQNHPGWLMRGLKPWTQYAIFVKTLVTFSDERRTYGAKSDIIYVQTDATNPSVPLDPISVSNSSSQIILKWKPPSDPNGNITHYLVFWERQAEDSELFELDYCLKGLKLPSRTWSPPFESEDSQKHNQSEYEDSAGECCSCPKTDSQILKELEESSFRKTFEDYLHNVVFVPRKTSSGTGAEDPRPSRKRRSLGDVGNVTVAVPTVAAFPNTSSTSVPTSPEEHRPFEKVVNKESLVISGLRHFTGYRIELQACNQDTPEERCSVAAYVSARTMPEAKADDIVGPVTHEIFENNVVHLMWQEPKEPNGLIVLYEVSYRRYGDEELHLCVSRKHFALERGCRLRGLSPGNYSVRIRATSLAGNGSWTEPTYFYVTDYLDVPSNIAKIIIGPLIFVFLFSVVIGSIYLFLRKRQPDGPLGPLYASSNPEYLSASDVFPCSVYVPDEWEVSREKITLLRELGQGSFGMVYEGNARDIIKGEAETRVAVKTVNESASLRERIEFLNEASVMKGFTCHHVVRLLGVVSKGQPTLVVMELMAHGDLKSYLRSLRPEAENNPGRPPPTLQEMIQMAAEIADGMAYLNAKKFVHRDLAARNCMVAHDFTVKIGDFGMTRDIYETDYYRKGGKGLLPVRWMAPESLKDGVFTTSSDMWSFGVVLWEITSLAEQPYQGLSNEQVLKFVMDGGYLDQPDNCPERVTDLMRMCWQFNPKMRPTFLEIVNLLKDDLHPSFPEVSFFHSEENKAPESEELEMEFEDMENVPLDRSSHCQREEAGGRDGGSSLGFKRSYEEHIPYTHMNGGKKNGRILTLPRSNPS
How it was run: as §1

[29] = biological target: T29, PIP5K2B (Homo sapiens, UniProt P78356)
T29 construct: purchased DiscoveRx KINOMEscan
How it was run: as §1

[30] = biological target: T30, PLK1 (Homo sapiens, UniProt P53350)
T30 construct: purchased DiscoveRx KINOMEscan
How it was run: as §1

Work on `Cc1ccc(C2=Nc3cccnc3S(=O)(=O)c3ccccc32)cc1` [TBPT, 6-(p-tolyl)benzo[f] pyrido[2,3-b][1,4] thiazepine 11,11-dioxide] yielded a remaining binding at 5 µM ([1]; 5 μM) of 100%, a remaining binding at 10 µM ([1]; 10 μM) of 100% and a remaining binding at 5 µM ([2]; 5 μM) of 90%. The remaining binding at 10 µM ([2]; 10 μM) was 100%, the remaining binding at 5 µM ([3]; 5 μM) was 92% and the remaining binding at 10 µM ([3]; 10 μM) was 100%. The remaining binding at 5 µM ([4]; 5 μM) was 83%, the remaining binding at 10 µM ([4]; 10 μM) was 100% and the remaining binding at 5 µM ([5]; 5 μM) was 100%. For the same compound, the remaining binding at 10 µM ([5]; 10 μM) was 98%, the remaining binding at 5 µM ([6]; 5 μM) was 95% and the remaining binding at 10 µM ([6]; 10 μM) was 96%. The remaining binding at 5 µM ([7]; 5 μM) was 95%, the remaining binding at 10 µM ([7]; 10 μM) was 100% and the remaining binding at 5 µM ([8]; 5 μM) was 92%. The remaining binding at 10 µM ([8]; 10 μM) was 92%, the remaining binding at 5 µM ([9]; 5 μM) was 81% and the remaining binding at 10 µM ([9]; 10 μM) was 95%. It also gave a remaining binding at 5 µM ([10]; 5 μM) of 100%, a remaining binding at 10 µM ([10]; 10 μM) of 100% and a remaining binding at 5 µM ([11]; 5 μM) of 36%. For the same compound, the remaining binding at 10 µM ([11]; 10 μM) was 100%, the remaining binding at 5 µM ([12]; 5 μM) was 94% and the remaining binding at 10 µM ([12]; 10 μM) was 88%. For the same compound, the remaining binding at 5 µM ([13]; 5 μM) was 100%, the remaining binding at 10 µM ([13]; 10 μM) was 93% and the remaining binding at 5 µM ([14]; 5 μM) was 100%. For the same compound, the remaining binding at 10 µM ([14]; 10 μM) was 100%, the remaining binding at 5 µM ([15]; 5 μM) was 100% and the remaining binding at 10 µM ([15]; 10 μM) was 100%. It also gave a remaining binding at 5 µM ([16]; 5 μM) of 88%, a remaining binding at 10 µM ([16]; 10 μM) of 67% and a remaining binding at 5 µM ([17]; 5 μM) of 100%. The remaining binding at 10 µM ([17]; 10 μM) was 85%, the remaining binding at 5 µM ([18]; 5 μM) was 100% and the remaining binding at 10 µM ([18]; 10 μM) was 85%. It also gave a remaining binding at 5 µM ([19]; 5 μM) of 100%, a remaining binding at 10 µM ([19]; 10 μM) of 100% and a remaining binding at 5 µM ([20]; 5 μM) of 100%. It also gave a remaining binding at 10 µM ([20]; 10 μM) of 98%, a remaining binding at 5 µM ([21]; 5 μM) of 98% and a remaining binding at 10 µM ([21]; 10 μM) of 98%. It also gave a remaining binding at 5 µM ([22]; 5 μM) of 100%, a remaining binding at 10 µM ([22]; 10 μM) of 98% and a remaining binding at 5 µM ([23]; 5 μM) of 100%. It also gave a remaining binding at 10 µM ([23]; 10 μM) of 98%, a remaining binding at 5 µM ([24]; 5 μM) of 100% and a remaining binding at 10 µM ([24]; 10 μM) of 91%. For the same compound, the remaining binding at 5 µM ([25]; 5 μM) was 85%, the remaining binding at 10 µM ([25]; 10 μM) was 100% and the remaining binding at 5 µM ([26]; 5 μM) was 100%. It also gave a remaining binding at 10 µM ([26]; 10 μM) of 88%, a remaining binding at 5 µM ([27]; 5 μM) of 100% and a remaining binding at 10 µM ([27]; 10 μM) of 90%. The remaining binding at 5 µM ([28]; 5 μM) was 98%, the remaining binding at 10 µM ([28]; 10 μM) was 84% and the remaining binding at 5 µM ([29]; 5 μM) was 100%. The remaining binding at 10 µM ([29]; 10 μM) was 100%, the remaining binding at 5 µM ([30]; 5 μM) was 76% and the remaining binding at 10 µM ([30]; 10 μM) was 80%.
